# Results reported in patent publication US7569586B2, “Compounds having β2 adrenergic receptor agonist and muscarinic receptor antagonist activity” (Theravance, Inc., priority 2004, dated 2009).
# Key:
# [1] = biological target: T1, human β2 adrenergic receptor (Homo sapiens, UniProt P07550); assay: Whole-cell cAMP Flashplate assay with lung epithelial cell line BEAS-2B endogenously expressing human β2 adrenergic receptor (Assay Test Procedure E); assay type: cell-based; details: BEAS-2B cells
# Method: For the determination of agonist potencies and efficacies (intrinsic activities) in a cell line expressing endogenous levels of the β2 adrenergic receptor, a human lung epithelial cell line (BEAS-2B) was used (ATCC CRL-9609, American Type Culture Collection, Manassas, Va.) (January B, et al., British Journal of Pharmacology, 1998, 123, 4, 701-11). Cells were grown to 75-90% confluency in complete, serum-free medium (LHC-9 MEDIUM containing Epinephrine and Retinoic Acid, cat # 181-500, Biosource International, Camarillo, Calif.). The day before the assay, medium was switched to LHC-8 (no epinephrine or retinoic acid, cat # 141-500, Biosource International, Camarillo, Calif.). cAMP assays were performed in a radioimmunoassay format using the Flashplate Adenylyl Cyclase Activation Assay System with [^125I]-cAMP (NEN SMP004, PerkinElmer Life Sciences Inc., Boston, Mass.), according to the manufacturers instructions. On the day of the assay, cells were rinsed with PBS, lifted by scraping with 5 mM EDTA in PBS, and counted. Cells were pelleted by centrifugation at 1,000 rpm and re-suspended in stimulation buffer pre-warmed to 37° C. at a final concentration of 600,000 cells/mL. Cells were used at a final concentration of 100,000 to 120,000 cells/well in this assay. […] Plates were sealed, incubated over night at 4° C. and counted the next morning in a Topcount scintillation counter (Packard BioScience Co., Meriden, Conn.). The amount of cAMP produced per mL of reaction was calculated based on the counts observed for samples and cAMP standards, as described in the manufacturer's user manual. Data were analyzed by nonlinear regression analysis with the GraphPad Prism Software package (GraphPad Software, Inc., San Diego, Calif.) using the 4-parameter model for sigmoidal dose-response.
# if desired, test compound efficacity (% Eff) was calculated from the ratio of the observed Emax (TOP of the fitted curve) and the maximal response obtained for isoproterenol dose response curve and was expressed as % Eff relative to isoproterenol.
# [2] = biological target: T1, human β2 adrenergic receptor; assay: Whole-cell cAMP Flashplate assay in CHO cell lines heterologously expressing human β2 adrenergic receptor (Assay Test Procedure C); assay type: cell-based; design: expressed in transfected cells; host or cells: CHO-K1 cells; details: CHO-K1 cells
# Method: cAMP assays were performed in a radioimmunoassay format using the Flashplate Adenylyl Cyclase Activation Assay System with [^125I]-cAMP (NEN SMP004, PerkinElmer Life Sciences Inc., Boston, Mass.), according to the manufacturers instructions. For the determination of P receptor agonist potency (EC50), CHO-K1 cell lines stably expressing cloned human β1, β2 or β3 adrenergic receptors were grown to near confluency in HAM's F-12 media supplemented with 10% FBS and Geneticin (250 μg/mL). Cells were rinsed with PBS and detached in dPBS (Dulbecco's Phosphate Buffered Saline, without CaCl2 and MgCl2) containing 2 mM EDTA or Trypsin-EDTA solution (0.05% trypsin/0.53 mM EDTA). After counting cells in Coulter cell counter, cells were pelleted by centrifugation at 1,000 rpm and re-suspended in stimulation buffer containing IBMX (PerkinElmer Kit) pre-warmed to room temperature to a concentration of 1.6×10^6 to 2.8×10^6 cells/mL. About 60,000 to 80,000 cells per well were used in this assay. Test compounds (10 mM in DMSO) were diluted into PBS containing 0.1% BSA in Beckman Biomek-2000 and tested at 11 different concentrations ranging from 100 μM to 1 pM. Reactions were incubated for 10 min at 37° C. and stopped by adding 100 μL of cold detection buffer containing [^125I]-cAMP (NEN SMP004, PerkinElmer Life Sciences, Boston, Mass.). The amount of cAMP produced (pmol/well) was calculated based on the counts observed for the samples and cAMP standards as described in the manufacturer's user manual. Data were analyzed by nonlinear regression analysis with the GraphPad Prism Software package (GraphPad Software, Inc., San Diego, Calif.) with the sigmoidal equation. The Cheng-Prusoff equation (Cheng Y, and Prusoff W H., Biochemical Pharmacology, 1973, 22, 23, 3099-108) was used to calculate the […].
# hM3 muscarinic receptor = biological target: T2, hM3 muscarinic receptor (Homo sapiens, UniProt P20309); assay: Radioligand binding assay for muscarinic receptors (Assay Test Procedure B); details: CHO cell membranes, [3H]-NMS displacement; read-out: Ki value for the M3 muscarinic receptor
# T2 construct: expressed in transfected cells; host or cells: CHO cells (membranes)
# Method: CHO cell lines stably expressing cloned human hM1, hM2, hM3 and hM4 muscarinic receptor subtypes, respectively, were grown to near confluency in HAM's F-12 media supplemented with 10% FBS and 250 μg/mL Geneticin. The cells were grown in a 5% CO2, 37° C. incubator and lifted with 2 mM EDTA in dPBS. Cells were collected by 5 minute centrifugation at 650×g, and cell pellets were either stored frozen at −80° C. or membranes were prepared immediately for use. For membrane preparation, cell pellets were resuspended in lysis buffer and homogenized with a Polytron PT-2100 tissue disrupter (Kinematica AG; 20 seconds×2 bursts). Crude membranes were centrifuged at 40,000×g for 15 minutes at 4° C. The membrane pellet was then resuspended with re-suspension buffer and homogenized again with the Polytron tissue disrupter. The protein concentration of the membrane suspension was determined by the method described in Lowry et al., 1951, […], 193, 265. All membranes were stored frozen in aliquots at −80° C. or used immediately. Aliquots of prepared hM5 receptor membranes were purchased directly from Perkin Elmer and stored at −80° C. until use.
# Radioligand binding assays for cloned human muscarinic receptors were performed in 96-well microtiter plates in a total assay volume of 100 μL. […] Filter plates were rinsed three times with wash buffer (10 mM HEPES) to remove unbound radioactivity. […] The plates were then counted in a PerkinElmer Topcount liquid scintillation counter (PerkinElmer Inc., Wellesley, Mass.). Binding data were analyzed by nonlinear regression analysis with the GraphPad Prism Software package (GraphPad Software, Inc., San Diego, Calif.) using the one-site competition model. Ki values for test compounds were calculated from observed IC50 values and the KD value of the radioligand using the Cheng-Prusoff equation (Cheng Y; Prusoff W H. (1973) Biochemical Pharmacology, 22(23):3099-108). […]
# [3] = biological target: T1, human β2 adrenergic receptor; assay: Radioligand binding assay for human β2 adrenergic receptor (Assay Test Procedure A); design: expressed in transfected cells; host or cells: CHO-K1 cells; details: CHO cell membranes, [3H]-dihydroalprenolol displacement
# Method: Chinese hamster ovarian (CHO) cell lines stably expressing cloned human β1, β2 or β3 adrenergic receptors, respectively, were grown to near confluency in Hams F-12 media with 10% FBS in the presence of 500 μg/mL Geneticin. The cell monolayer was lifted with 2 mM EDTA in PBS. Cells were pelleted by centrifugation at 1,000 rpm, and cell pellets were either stored frozen at −80° C. or membranes were prepared immediately for use. For preparation of β1 and β2 receptor expressing membranes, cell pellets were re-suspended in lysis buffer (10 mM HEPES/HCl, 10 mM EDTA, pH 7.4 at 4° C.) and homogenized using a tight-fitting Dounce glass homogenizer (30 strokes) on ice. […] The protein concentration of the membrane suspension was determined by the methods described in Lowry et al., 1951, Journal of Biological Chemistry, 193, 265; and Bradford, Analytical Biochemistry, 1976, 72, 248-54. […]
# Binding assays were performed in 96-well microtiter plates in a total assay volume of 100 μL with 10-15 μg of membrane protein containing the human β1, β2 or β3 adrenergic receptors in assay buffer (75 mM Tris/HCl pH 7.4 at 25° C., 12.5 mM MgCl2, 1 mM EDTA, 0.2% BSA). […] Non-specific binding was determined in the presence of 10 μM propranolol. […] Filter plates were washed three times with filtration buffer (75 mM Tris/HCl pH 7.4 at 4° C., 12.5 mM MgCl2, 1 mM EDTA) to remove unbound radioactivity. […]
# T2 sequence (P20309 whole entry): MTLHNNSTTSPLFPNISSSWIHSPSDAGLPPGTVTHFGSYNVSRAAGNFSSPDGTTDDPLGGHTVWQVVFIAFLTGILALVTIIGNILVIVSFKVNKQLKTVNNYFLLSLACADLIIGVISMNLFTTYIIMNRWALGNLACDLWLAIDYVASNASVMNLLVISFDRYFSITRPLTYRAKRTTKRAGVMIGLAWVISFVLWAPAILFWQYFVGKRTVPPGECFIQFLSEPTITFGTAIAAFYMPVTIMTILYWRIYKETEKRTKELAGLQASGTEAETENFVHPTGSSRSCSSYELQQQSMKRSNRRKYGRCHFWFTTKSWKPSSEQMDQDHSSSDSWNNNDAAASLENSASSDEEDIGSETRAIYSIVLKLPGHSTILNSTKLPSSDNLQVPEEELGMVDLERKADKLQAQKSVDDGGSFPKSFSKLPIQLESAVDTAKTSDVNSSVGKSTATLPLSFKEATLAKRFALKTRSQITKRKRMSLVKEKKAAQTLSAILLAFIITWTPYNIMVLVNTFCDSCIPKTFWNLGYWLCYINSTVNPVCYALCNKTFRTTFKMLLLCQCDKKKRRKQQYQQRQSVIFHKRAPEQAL
# T1 sequence (P07550 whole entry): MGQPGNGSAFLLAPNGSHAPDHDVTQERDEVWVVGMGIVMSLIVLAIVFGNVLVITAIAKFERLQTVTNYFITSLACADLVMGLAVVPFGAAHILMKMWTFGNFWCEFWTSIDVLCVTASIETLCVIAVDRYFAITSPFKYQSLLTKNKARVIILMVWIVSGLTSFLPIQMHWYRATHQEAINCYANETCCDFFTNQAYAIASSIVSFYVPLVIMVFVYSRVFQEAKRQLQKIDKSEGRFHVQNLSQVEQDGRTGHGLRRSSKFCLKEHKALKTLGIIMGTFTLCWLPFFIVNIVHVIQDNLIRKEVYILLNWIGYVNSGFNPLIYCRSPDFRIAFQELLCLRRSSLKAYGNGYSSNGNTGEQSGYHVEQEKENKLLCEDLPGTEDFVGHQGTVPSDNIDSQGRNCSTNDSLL
EC50 [1] [nM],EC50 [2] [nM],Ki (hM3 muscarinic receptor) [nM],Ki [3] [nM],Compound
< 20,< 10,< 10,< 10,"O=C(Nc1ccccc1-c1ccsc1)OC1CCN(CCCCCCCCCNC[C@H](O)c2ccc(O)c3[nH]c(=O)ccc23)CC1 [Example 2, (2-Thien-3-ylphenyl)carbamic Acid 1-{9-[(R)-2-Hydroxy-2-(8-hydroxy-2-oxo-1,2-dihydroquinolin-5-yl)ethylamino]nonyl}piperidin-4-yl Ester]"
< 20,< 10,< 150,,"O=C(Nc1c(F)cc(F)cc1-c1cccnc1)OC1CCN(CCCCCCCCCNC[C@H](O)c2ccc(O)c3[nH]c(=O)ccc23)CC1 [Example 3, (2,4-Difluoro-6-pyridin-3-ylphenyl)carbamic Acid 1-{9-[(R)-2-Hydroxy-2-(8-hydroxy-2-oxo-1,2-dihydroquinolin-5-yl)ethylamino]nonyl}piperidin-4-yl Ester]"
< 20,< 10,< 10,< 10,"O=C(Nc1ccccc1-c1cccs1)OC1CCN(CCCCCCCCCNC[C@H](O)c2ccc(O)c3[nH]c(=O)ccc23)CC1 [Example 1, (2-Thien-2-ylphenyl)carbamic Acid 1-{9-[(R)-2-Hydroxy-2-(8-hydroxy-2-oxo-1,2-dihydroquinolin-5-yl)ethylamino]nonyl}piperidin-4-yl Ester]"
